# Patent US6518041B1, “Hormone response element that binds an androgen and progesterone receptor” (Schering Aktiengesellschaft, priority 1998, dated 2003)
# Assays:
# androgen receptor [1] = biological target: T1, androgen receptor (Homo sapiens, UniProt P10275); assay: ARE17 luciferase reporter test system in PC-3/AR cells; format: cell-based
# T1 construct: expressed in transfected cells; host or cells: PC-3 cells stably transformed with an androgen receptor expression vector (PC-3/AR)
# T1 sequence (P10275 1-920): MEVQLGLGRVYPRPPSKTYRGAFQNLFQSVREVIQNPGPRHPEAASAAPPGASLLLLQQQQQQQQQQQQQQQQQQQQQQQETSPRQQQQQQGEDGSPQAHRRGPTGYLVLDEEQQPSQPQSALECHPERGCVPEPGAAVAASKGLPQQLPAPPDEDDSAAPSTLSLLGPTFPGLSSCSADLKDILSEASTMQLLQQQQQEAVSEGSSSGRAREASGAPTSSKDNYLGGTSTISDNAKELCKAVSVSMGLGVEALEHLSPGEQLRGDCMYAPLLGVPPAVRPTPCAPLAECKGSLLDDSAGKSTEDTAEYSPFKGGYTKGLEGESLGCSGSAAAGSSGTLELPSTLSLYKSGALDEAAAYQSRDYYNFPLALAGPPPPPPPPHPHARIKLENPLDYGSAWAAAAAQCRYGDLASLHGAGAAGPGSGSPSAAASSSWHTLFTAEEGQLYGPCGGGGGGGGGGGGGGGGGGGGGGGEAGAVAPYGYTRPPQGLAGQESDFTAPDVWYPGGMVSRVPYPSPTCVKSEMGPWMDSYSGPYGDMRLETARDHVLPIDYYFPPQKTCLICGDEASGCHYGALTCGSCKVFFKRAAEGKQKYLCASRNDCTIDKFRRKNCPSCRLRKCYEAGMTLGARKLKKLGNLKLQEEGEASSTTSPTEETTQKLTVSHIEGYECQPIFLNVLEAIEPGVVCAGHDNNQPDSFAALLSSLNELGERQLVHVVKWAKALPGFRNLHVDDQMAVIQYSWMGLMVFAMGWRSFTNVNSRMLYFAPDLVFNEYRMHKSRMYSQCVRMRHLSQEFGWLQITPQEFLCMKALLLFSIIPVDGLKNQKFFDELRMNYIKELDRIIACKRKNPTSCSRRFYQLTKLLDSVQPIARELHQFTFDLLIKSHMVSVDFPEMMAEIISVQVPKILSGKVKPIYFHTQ
# Text: Preferred is the use of the luciferase reporter gene and of PC-3 cells that have been transformed in advance in a stable manner with an expression vector for the androgen receptor (PC-3/AR cells) or in a transient parallel manner. In addition, the use of the TK minimal promoter is preferred. […] A progestin is a synthetic progesterone analog.
# (§1) Test systems were compared that contained either an HRE according to the invention that corresponds to Seq. ID No. 1 (ARE17) or the consensus-HRE with the sequence (SEQ ID NO: 5) 5′-[…]-3′ (ARE). All other components were respectively the same. Copies of the ARE17 were introduced upstream from the TK minimal promoter and the luciferase gene in the pGL3-basic vector (FIG. 1). PC-3/AR cells, which already express the androgen receptor in a stable manner, were saturated in RPMI1640/10% cFS/L-glutamine for 18-24 hours and then transformed for five hours with 100 ng of reporter plasmid and the Fu-gene transfection reagent (Boehringer Mannheim). Then, the medium was replaced by RPM1640/5% cFCS/L-glutamine, and the activity of the reporter gene measured 42 hours later.
# (§2) Four copies of the elements were introduced upstream from the TK minimal promoter and the luciferase gene in the pGL3-basic vector (FIG. 1) and transformed in the PC-3/AR-cells, which already express the androgen receptor in a stable manner, as described above. The stimulation was carried out with the synthetic androgen R1881 (10^−9M or 10^−7M final concentration).
# androgen receptor [2] = biological target: T1, androgen receptor; assay: consensus-HRE (ARE) luciferase reporter test system in PC-3/AR cells; format: cell-based
# Text: as §1, §2
Compound,"induction of the luciferase activity (androgen receptor [1]; 2 copies of ARE17, TK minimal promoter, PC-3/AR cells, androgen receptor expression vector) [fold]","induction of the luciferase activity compared between ARE17, consensus-HRE and IDR17 (androgen receptor [1]; 4 copies of ARE17, R1881 10^-9 M or 10^-7 M)","increase of the luciferase activity (androgen receptor [1]; 4 copies of ARE17, TK minimal promoter, PC-3/AR cells) [fold]","difference in stimulation between the two R1881 concentrations (androgen receptor [1]; 4 copies, 10^-9 M versus 10^-7 M final concentration)","induction of the luciferase activity (in words) (androgen receptor [1]; ARE17, R1881 10^-7 M, measured 42 hours later)","induction of the luciferase activity compared between ARE17, consensus-HRE and IDR17 (androgen receptor [2]; 4 copies of consensus-HRE, R1881 10^-9 M or 10^-7 M)","stimulation of ARE17 in the absence of an androgen (androgen receptor [1]; 4 copies, no androgen)","stimulation of the consensus-HRE in the absence of an androgen (androgen receptor [2]; 4 copies, no androgen)"
C[C@]1(O)CC[C@H]2[C@@H]3CCC4=CC(=O)CCC4=C3C=C[C@@]21C [R1881],10.5,strongest induction,46,No decisive difference,very strong induction,weakest stimulation,,
CC(C)(O)C(=O)Nc1ccc([N+](=O)[O-])c(C(F)(F)F)c1 [hydroxyflutamide],,,,,,,stimulated neither,stimulated neither
